Results taken from ChEMBL document CHEMBL3817755, “Design, synthesis and biological evaluation of indazolepyrimidine based derivatives as anticancer agents with anti-angiogenic and antiproliferative activities” (Medchemcomm, 2016).

Columns and labels:
K562 = experiment: Growth inhibition of human K562 cells after 48 hrs by SRB assay; assay type: functional; conditions: K562, 48 h
[1] = Growth inhibition of human MOLT4 cells after 48 hrs by SRB assay; assay type: functional; conditions: MOLT-4, 48 h
[2] = Growth inhibition of human RPMI8226 cells after 48 hrs by SRB assay; assay type: functional; conditions: RPMI-8226, 48 h
SR = experiment: Growth inhibition of human SR cells after 48 hrs by SRB assay; assay type: functional; conditions: for CC50: read-out: LC50 (the source's name)
A549 = experiment: Growth inhibition of human A549/ATCC cells after 48 hrs by SRB assay; assay type: functional; conditions: A549, 48 h; for CC50: read-out: LC50 (the source's name)
EKVX = experiment: Growth inhibition of human EKVX cells after 48 hrs by SRB assay; assay type: functional; conditions: for CC50: read-out: LC50 (the source's name)
[3] = Growth inhibition of human HOP62 cells after 48 hrs by SRB assay; assay type: functional; conditions: HOP-62, 48 h
[4] = Growth inhibition of human HOP92 cells after 48 hrs by SRB assay; assay type: functional; conditions: HOP-92, 48 h; for CC50: read-out: LC50 (the source's name)
NCI-H460 = experiment: Growth inhibition of human NCI-H460 cells after 48 hrs by SRB assay; assay type: functional; conditions: NCI-H460, 48 h
[5] = Growth inhibition of human HCC2998 cells after 48 hrs by SRB assay; assay type: functional; conditions: HCC 2998, 48 h; for CC50: read-out: LC50 (the source's name)
HT-29 = experiment: Growth inhibition of human HT-29 cells after 48 hrs by SRB assay; assay type: functional; conditions: HT-29, 48 h; for CC50: read-out: LC50 (the source's name)
[6] = Growth inhibition of human SW620 cells after 48 hrs by SRB assay; assay type: functional; conditions: SW-620, 48 h; for CC50: read-out: LC50 (the source's name)
[7] = Growth inhibition of human SNB75 cells after 48 hrs by SRB assay; assay type: functional; conditions: SNB-75, 48 h
U-251 = experiment: Growth inhibition of human U251 cells after 48 hrs by SRB assay; assay type: functional; conditions: U-251, 48 h; for CC50: read-out: LC50 (the source's name)
[8] = Growth inhibition of human LOXIMVI cells after 48 hrs by SRB assay; assay type: functional; conditions: LOX IMVI
M14 = experiment: Growth inhibition of human M14 cells after 48 hrs by SRB assay; assay type: functional; conditions: M14, 48 h; for CC50: read-out: LC50 (the source's name)
SK-MEL-2 = experiment: Growth inhibition of human SK-MEL-2 cells after 48 hrs by SRB assay; assay type: functional; conditions: SK-MEL-2, 48 h
[9] = Growth inhibition of human UACC257 cells after 48 hrs by SRB assay; assay type: functional; conditions: UACC-257, 48 h; for CC50: read-out: LC50 (the source's name)
[10] = Growth inhibition of human OVCAR4 cells after 48 hrs by SRB assay; assay type: functional; conditions: OVCAR-4, 48 h; for CC50: read-out: LC50 (the source's name)
[11] = Growth inhibition of human NCI-ADR-RES cells after 48 hrs by SRB assay; assay type: functional
[12] = Growth inhibition of human SKOV3 cells after 48 hrs by SRB assay; assay type: functional; conditions: SK-OV-3, 48 h
786-0 = experiment: Growth inhibition of human 786-0 cells after 48 hrs by SRB assay; assay type: functional; conditions: 786-0, 48 h; for CC50: read-out: LC50 (the source's name)
[13] = Growth inhibition of human Caki1 cells after 48 hrs by SRB assay; assay type: functional; conditions: CAKI-1, 48 h; for CC50: read-out: LC50 (the source's name)
[14] = Growth inhibition of human RXF393 cells after 48 hrs by SRB assay; assay type: functional; conditions: RXF 393, 48 h
[15] = Growth inhibition of human TK10 cells after 48 hrs by SRB assay; assay type: functional; conditions: TK-10, 48 h; for CC50: read-out: LC50 (the source's name)
[16] = Growth inhibition of human PC3 cells after 48 hrs by SRB assay; assay type: functional; conditions: PC-3, 48 h
MCF7 = experiment: Growth inhibition of human MCF7 cells after 48 hrs by SRB assay; assay type: functional; conditions: MCF7, 48 h; for CC50: read-out: LC50 (the source's name)
[17] = Growth inhibition of human Hs 578T cells after 48 hrs by SRB assay; assay type: functional; conditions: for CC50: read-out: LC50 (the source's name)
[18] = Growth inhibition of human BT549 cells after 48 hrs by SRB assay; assay type: functional; conditions: BT-549, 48 h; for CC50: read-out: LC50 (the source's name)
T47D = experiment: Growth inhibition of human T47D cells after 48 hrs by SRB assay; assay type: functional
[19] = target: Aurora kinase A (Homo sapiens) (UniProt O14965); experiment: Inhibition of Aurora A (unknown origin) at 10 uM
Chain of Aurora kinase A (Homo sapiens) (O14965 whole entry): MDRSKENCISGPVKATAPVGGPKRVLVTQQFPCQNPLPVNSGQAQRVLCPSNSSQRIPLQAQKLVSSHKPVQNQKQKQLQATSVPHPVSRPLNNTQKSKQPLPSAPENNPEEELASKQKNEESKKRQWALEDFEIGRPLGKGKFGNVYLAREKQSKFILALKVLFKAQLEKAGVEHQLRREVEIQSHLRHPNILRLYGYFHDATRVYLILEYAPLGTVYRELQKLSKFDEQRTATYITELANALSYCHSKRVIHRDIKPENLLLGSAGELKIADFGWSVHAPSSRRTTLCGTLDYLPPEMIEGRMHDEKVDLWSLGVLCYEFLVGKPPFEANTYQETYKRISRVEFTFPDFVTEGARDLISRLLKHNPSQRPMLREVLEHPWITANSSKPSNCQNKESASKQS

[20] = target: Cyclin-dependent kinase 2 (Homo sapiens) (UniProt P24941); experiment: Inhibition of CDK-2 (unknown origin) at 10 uM
[21] = target: Mast/stem cell growth factor receptor Kit (Homo sapiens) (UniProt P10721); experiment: Inhibition of c-Kit (unknown origin) at 10 uM
Chain of Mast/stem cell growth factor receptor Kit (Homo sapiens) (P10721 whole entry): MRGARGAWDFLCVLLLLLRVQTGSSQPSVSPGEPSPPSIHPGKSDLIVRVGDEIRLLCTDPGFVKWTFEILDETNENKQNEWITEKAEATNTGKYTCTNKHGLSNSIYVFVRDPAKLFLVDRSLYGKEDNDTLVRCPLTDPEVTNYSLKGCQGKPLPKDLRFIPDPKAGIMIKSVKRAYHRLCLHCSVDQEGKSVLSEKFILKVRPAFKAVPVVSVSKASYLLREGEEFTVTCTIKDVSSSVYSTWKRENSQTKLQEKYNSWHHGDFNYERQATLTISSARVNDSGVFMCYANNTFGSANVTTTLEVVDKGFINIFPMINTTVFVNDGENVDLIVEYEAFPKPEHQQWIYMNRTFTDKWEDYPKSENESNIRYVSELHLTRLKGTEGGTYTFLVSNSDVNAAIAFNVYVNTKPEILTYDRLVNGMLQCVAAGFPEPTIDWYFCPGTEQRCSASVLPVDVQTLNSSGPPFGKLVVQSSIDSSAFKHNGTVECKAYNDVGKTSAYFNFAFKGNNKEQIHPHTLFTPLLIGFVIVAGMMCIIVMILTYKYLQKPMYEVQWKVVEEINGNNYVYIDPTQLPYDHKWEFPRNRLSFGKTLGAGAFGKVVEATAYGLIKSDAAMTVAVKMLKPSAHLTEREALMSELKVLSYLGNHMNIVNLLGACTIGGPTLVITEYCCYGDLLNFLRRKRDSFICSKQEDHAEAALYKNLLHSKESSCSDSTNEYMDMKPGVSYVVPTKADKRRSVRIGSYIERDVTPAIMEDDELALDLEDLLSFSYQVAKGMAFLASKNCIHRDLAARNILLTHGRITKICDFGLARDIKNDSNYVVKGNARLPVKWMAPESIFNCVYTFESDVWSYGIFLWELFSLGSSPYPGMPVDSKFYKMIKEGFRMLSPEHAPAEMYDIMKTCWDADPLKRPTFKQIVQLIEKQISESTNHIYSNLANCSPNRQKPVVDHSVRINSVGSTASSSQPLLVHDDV

HUVEC = experiment: Antiproliferative activity against HUVEC after 72 hrs by AlamarBlue assay; conditions: Homo sapiens
[22] = Antiangiogenic activity in human PC3 cells assessed as reduction in VEGF levels at […] +/- […] uM after 72 hrs by ELISA relative to control; assay type: functional, PC-3; design: scale not given: the % may be the effect or the level left
[23] = Antiangiogenic activity in human PC3 cells assessed as reduction in EGF levels at […] +/- […] uM after 72 hrs by ELISA relative to control; assay type: functional, PC-3; design: scale not given: the % may be the effect or the level left

## COc1ccc(Nc2nccc(Nc3ccc4[nH]ncc4c3)n2)cc1
K562
  GI50: 2.1 µM
  LC50: > 100 µM
  TGI: 4.67 µM
[1]
  GI50: 1.55 µM
  LC50: > 100 µM
  TGI: 4.67 µM
[2]
  GI50: 1.99 µM
  LC50: > 100 µM
  TGI: 4.67 µM
SR
  GI50: 1.75 µM
  TGI: 4.67 µM
  CC50: > 100 µM
A549
  GI50: 3.46 µM
  TGI: 14.3 µM
  CC50: 78.8 µM
EKVX
  GI50: 5 µM
  TGI: 17.9 µM
  CC50: 42.3 µM
[3]
  GI50: 2.27 µM
  LC50: 19.4 µM
  TGI: 5.76 µM
[4]
  GI50: 3.13 µM
  TGI: 12.9 µM
  CC50: 44.5 µM
NCI-H460
  GI50: 2.7 µM
  LC50 (50% lethal concentration): > 100 µM
  TGI: 38.2 µM
[5]
  GI50: 2.88 µM
  TGI: 8.05 µM
  CC50: 27.6 µM
HT-29
  GI50: 2.36 µM
  TGI: 8.33 µM
  CC50: 39.7 µM
[6]
  GI50: 3.31 µM
  TGI: > 100 µM
  CC50: > 100 µM
[7]
  GI50: 4.58 µM
  LC50: 51.7 µM
  TGI: 20.3 µM
U-251
  GI50: 3.61 µM
  TGI: 13.6 µM
  CC50: 36.9 µM
[8]
  GI50: 1.92 µM
  LC50: 7.8 µM
  TGI: 3.87 µM
M14
  GI50: 2.39 µM
  TGI: 6.15 µM
  CC50: 21.2 µM
SK-MEL-2
  GI50: 2.4 µM
  LC50: 29.8 µM
  TGI: 6.39 µM
[9]
  GI50: 5.41 µM
  TGI: 16.9 µM
  CC50: 41.1 µM
[10]
  GI50: 2.99 µM
  TGI: 11.8 µM
  CC50: 55.6 µM
[11]
  GI50: 2.18 µM
  LC50: 29.4 µM
  TGI: 5.75 µM
[12]
  GI50: 7.04 µM
  LC50: 58.8 µM
  TGI: 21.7 µM
786-0
  GI50: 1.74 µM
  TGI: 4.75 µM
  CC50: 16.1 µM
[13]
  GI50: 2.22 µM
  TGI: 14.9 µM
  CC50: 38.6 µM
[14]
  GI50: 1.98 µM
  LC50 (50% lethal concentration): 24.3 µM
  TGI: 6.45 µM
[15]
  GI50: 2.45 µM
  TGI: 9.55 µM
  CC50: 31 µM
[16]
  GI50: 2.21 µM
  LC50: 50.4 µM
  TGI: 7.2 µM
MCF7
  GI50: 2.05 µM
  TGI: 5.36 µM
  CC50: > 100 µM
[17]
  GI50: 5.02 µM
  TGI: > 100 µM
  CC50: > 100 µM
[18]
  GI50: 3.22 µM
  TGI: 12.1 µM
  CC50: 34.8 µM
T47D
  GI50: 1.77 µM
  LC50 (concentration killing 50% of cells): 97.8 µM
  TGI: 5.24 µM
[19]
  inhibition: 91%
[20]
  inhibition: 71%
[21]
  inhibition: 85%

## NS(=O)(=O)c1ccc(Nc2nccc(Nc3ccc4[nH]ncc4c3)n2)cc1
HUVEC
  IC50: 1.37 µM
[22]
  Activity: 37.6%
[23]
  Activity: 34.6%

## COc1cccc(Nc2nccc(Nc3ccc4[nH]ncc4c3)n2)c1
K562
  GI50: 1.3 µM
  LC50: 7.13 µM
  TGI: 3.89 µM
[1]
  GI50: 0.52 µM
  LC50: 28.4 µM
  TGI: 2.83 µM
[2]
  GI50: 1.36 µM
  LC50: 50.1 µM
  TGI: 4.19 µM
SR
  GI50: 1.34 µM
  TGI: 4.93 µM
  CC50: 20.6 µM
A549
  GI50: 1.71 µM
  TGI: 3.74 µM
  CC50: 8.22 µM
EKVX
  GI50: 1.64 µM
  TGI: 4.09 µM
  CC50: 10.5 µM
[3]
  GI50: 1.71 µM
  LC50: 8.36 µM
  TGI: 3.78 µM
[4]
  GI50: 1.45 µM
  TGI: 4.14 µM
  CC50: 15.3 µM
NCI-H460
  GI50: 1.64 µM
  LC50 (50% lethal concentration): 11.5 µM
  TGI: 4.17 µM
[5]
  GI50: 1.79 µM
  TGI: 3.36 µM
  CC50: 6.29 µM
HT-29
  GI50: 1.52 µM
  TGI: 3.45 µM
  CC50: 7.83 µM
[6]
  GI50: 2.41 µM
  TGI: 6.13 µM
  CC50: 21 µM
[7]
  GI50: 1.39 µM
  LC50: 7.08 µM
  TGI: 3.13 µM
U-251
  GI50: 1.58 µM
  TGI: 3.18 µM
  CC50: 6.39 µM
[8]
  GI50: 1.44 µM
  LC50: 7.07 µM
  TGI: 3.19 µM
M14
  GI50: 1.35 µM
  TGI: 2.81 µM
  CC50: 5.83 µM
SK-MEL-2
  GI50: 1.62 µM
  LC50: 6.59 µM
  TGI: 3.27 µM
[9]
  GI50: 2.04 µM
  TGI: 3.73 µM
  CC50: 6.79 µM
[10]
  GI50: 1.46 µM
  TGI: 4.03 µM
  CC50: 12.5 µM
[11]
  GI50: 1.54 µM
  LC50: 14.8 µM
  TGI: 4.36 µM
[12]
  GI50: 2.31 µM
  LC50: 16.4 µM
  TGI: 5.4 µM
786-0
  GI50: 1.46 µM
  TGI: 2.91 µM
  CC50: 5.82 µM
[13]
  GI50: 0.99 µM
  TGI: 2.51 µM
  CC50: 6.33 µM
[14]
  GI50: 1.06 µM
  LC50 (50% lethal concentration): 5.1 µM
  TGI: 2.33 µM
[15]
  GI50: 1.42 µM
  TGI: 2.82 µM
  CC50: 5.6 µM
[16]
  GI50: 1.34 µM
  LC50: 7.23 µM
  TGI: 3.12 µM
MCF7
  GI50: 1.26 µM
  TGI: 3.11 µM
  CC50: 7.53 µM
[17]
  GI50: 1.79 µM
  TGI: 4.61 µM
  CC50: 15.2 µM
[18]
  GI50: 1.67 µM
  TGI: 3.71 µM
  CC50: 8.23 µM
T47D
  GI50: 1.05 µM
  LC50 (concentration killing 50% of cells): 9.23 µM
  TGI: 3.12 µM
[19]
  inhibition: 76%
[20]
  inhibition: 76%
[21]
  inhibition: 80%
